Legend:
[1] = system: HCT116; assay: Combined TAF10 inhibition and oxaliplatin in colorectal cancer-inducing animal model; type: in vivo, Nude mice
Procedure: First, TAF10 WT (wild type) and TAF10 knockdown (KD) cells were prepared in the same manner as in Experimental Example 1-3 using shRNA consisting of a base sequence represented by SEQ ID NO: 7 in HCT116, which was a colorectal cancer cell line. 2×10^6 of TAF10 WT or TAF10 KD was prepared and subcutaneously injected into Nude mice deficient of an immune system. Tumor occurrence was confirmed every two days, and its size was measured. In addition, in order to confirm the effect of combined treatment with anticancer agents, the colorectal cancer-inducing animal model prepared in the same manner as before was divided into four experimental groups, and after 2 weeks (14 days) when the tumor had formed to some extent, a control group was administered with PBS and in the experimental group, oxaliplatin was injected into the abdominal cavity at a concentration of 10 mg/kg every two days.
In addition, the combined effect in vivo was confirmed using a colorectal cancer-inducing animal model prepared by subcutaneously injecting HCT116 in which TAF10 was inhibited or HCT116 in which TAF10 was not inhibited. From two weeks after the tumor in each experimental group was formed, WT and KD were divided into two experimental groups. […]

[2] = system: cancer cells; assay: Combined TAF10 inhibition and oxaliplatin: confluence, PI staining, FACS cell death; type: cell-based
Procedure: (§1) Infected cells were inoculated in a 96-well plate (6×10^3 cell/well) to measure the cell growth and the cell growth was recorded every 3 hours using IncuCyte ZOOM (Essen Bioscience), and cell confluence was analyzed using IncuCyte ZOOM 2016A software.
Meanwhile, an increase in the cancer stemness of cancer cells may also cause increased resistance of cancer cells to anticancer agents. Therefore, a colorectal cancer animal model in which TAF10 was inhibited or not was treated with the anticancer agent, oxaliplatin (1 μM concentration) and its therapeutic effect was confirmed.
In addition, as a result of staining cells by treating a PI solution capable of confirming cell death, it was confirmed that proliferation was suppressed when TAF10 was inhibited, and that the number of dying cells increased when treated with oxaliplatin along with TAF10 inhibition (FIG. 9B).
In addition, the degree of cell death through PI and 7-AAD was confirmed through FACS. In this regard, Q1 means NECROSIS, Q2 means LATE APOPTOSIS, Q3 means EARLY APOPTOSIS, and Q4 means live cells. The degree of cell death may be determined by increasing the ratio of Q2. As a result, it was confirmed that the ratio of Q2 increased when TAF10 was inhibited and oxaliplatin was combined, so that it was confirmed that cell death increased (FIG. 9C).

[3] = system: HCT116; assay: Western blot protein expression upon TAF10 inhibition; type: cell-based
Procedure: Cellular proteins were dissolved and extracted on ice in a lysis buffer (20 mM HEPES (pH 7.2), 150 mM NaCl, 0.5% Triton X-100, 10% glycerol, 0.1% SDS) containing 0.1% protease inhibitor and phosphatase inhibitor cocktail (Thermo-scientific, USA). The proteins were separated through protein electrophoresis (10% gel) and transferred to a PVDF membrane. For Western blot, an anti-TAF10 (ab263967) antibody was purchased from Abcam, anti-AKT1 (2938S), anti-phosphoAkt (2965S), anti-phospho B-raf (#2696), anti-MEK1/2. (#9122), anti-phosphoERK1/2 (#9106), anti-STAT3 (#9139), and anti-phosphoSTAT3 (#9131) antibodies were purchased from Cell signaling, and anti-phospho m-TOR (sc-293133), anti-phosphoMEK1/2 (sc-81503), anti-CyclinE1 (sc-247), anti-CDK2 (sc-6248), and anti-VEGF (sc7269) antibodies were purchased and used from Santacruz. A rabbit polyclonal anti-GAPDH antibody was provided and used from the Korea Research Institute of Bioscience and Biotechnology. The expression of each protein band was confirmed using an enhanced chemiluminescence (ECL) solution.
Through Example, it was confirmed that the TAF10 inhibition suppressed the growth of HCT116, a colorectal cancer cell line. […]

[4] = system: HCT116; assay: Senescence b-galactosidase staining; type: cell-based; conditions: HCT116, FIG. 5C
[5] = system: HCT116; assay: Cell cycle by FACS (PI staining); type: cell-based; conditions: HCT116, FIG. 5B
Procedure: The cells were treated with trypsin-EDTA, separated into single cells, washed twice with PBS, and fixed with 70% ethanol for 1 hour at −20° C. After washing again with PBS twice, the cells were treated with 20 μg/ml of RNase A, and flow cytometry analysis was performed through 20 μg/ml of propidium iodide (PI) staining.
(§2) Through Example, it was confirmed that the TAF10 inhibition suppressed the growth of HCT116, a colorectal cancer cell line. As a result, the expression genes and proteins related with the growth rate and cell growth and the expression of genes and proteins related to cell cycle arrest were confirmed according to TAF10 inhibition (using siRNA) in HT29 and CACO2 colorectal cancer cell lines, which were other colorectal cancer cell lines. In addition, the cell cycle was confirmed according to TAF10 inhibition, and whether there was an increase in senescent cells was confirmed. The senescent cells were confirmed by staining the senescent cells using a senescence b-galactosidase staining kit (Cell signaling).

[6] = system: HCT116; assay: qRT-PCR gene expression upon TAF10 inhibition; type: cell-based
[7] = system: HT29; assay: Growth rate of colorectal cancer cell line upon TAF10 inhibition (siRNA); type: cell-based; conditions: FIG. 4A
Procedure: (§3) Transfection reagents RNAiMAX (Thermo Fisher Scientific) and siRNA (BIONEER Corporation, Daejeon, South Korea) were mixed in an Opti-mem medium at a final concentration of 30 nM. Target cells were cultured with the mixture, and then cells were harvested for RNA extraction after 72 hours of siRNA transfection.
as §1, §2

[8] = system: CACO2; assay: as above; type: cell-based; conditions: FIG. 4A
Procedure: as §3, §1, §2

[9] = system: HCT116; assay: Cell growth (IncuCyte confluence) after siRNA transfection; type: cell-based; conditions: HCT116, siRNA 30 nM, FIG. 2A
Procedure: as §3
The used siRNAs siNPM1, siTAF10, and siZNHIT1 were as follows. • (SEQ ID NO: 1) siTAF10-SENSE: GUGAAGAAGCCGCACUACU • (SEQ ID NO: 2) siTAF10-ANTISENSE: AGUAGUGCGGCUUCUUCAC • (SEQ ID NO: 3) siNPM1-SENSE: […] GA • (SEQ ID NO: 4) siNPM1-ANTISENSE: […] UC • (SEQ ID NO: 5) siZNHIT1-SENSE: GAGACUGCCUCAGUUUGAU • (SEQ ID NO: 6) siZNHIT1-ANTISENSE: AUCAAACUGAGGCAGUCUC 1-3. Transfection and Transduction of shRNA
as §1
Based on those confirmed in Example 1, NPM1, TAF, or ZNHIT1 of the colorectal cancer cell line HCT116 was inhibited as in Experimental Example 1-2, and its growth ability was confirmed. […] In addition, as a result of confirming overall survival probability when TAF10 is inhibited in The Cancer Genome Atlas (TCGA) as a large-scale cancer database, it was confirmed that the survival probability was increased (see FIG. 2B). […]

Row | Compound | tumor size ([1]; TAF10 KD HCT116, oxaliplatin 10 mg/kg once every two days, after 44 days, FIG. 9E) | tumor size (tumor volume over time) ([1]; TAF10 inhibited and oxaliplatin, FIGS. 9D and 9E) | effect of TAF10 inhibition on the anticancer effect of oxaliplatin ([2]; FIG. 9) | cancer confluence ([2]; TAF10 inhibited and oxaliplatin 1 μM, FIG. 9A) | ratio of Q2 (LATE APOPTOSIS), FACS PI and 7-AAD ([2]; TAF10 inhibited and oxaliplatin combined, FIG. 9C) | number of dying cells (PI staining) ([2]; oxaliplatin along with TAF10 inhibition, FIG. 9B) | expression of proteins Cyclin E1 and CDK2 related to cell cycle arrest ([3]; FIG. 5A) | expression of proteins tAkt1, pAkt, pGSK-3β, m-TOR, pB-raf, tMEK1/2, pMEK1/2, and pERK1/2 ([3]; HCT116, FIG. 4B) | number of senescent cells [4] | cell cycle [5] | expression of genes TP53, CDKN1A, and CXCL8 related to cell cycle arrest ([6]; FIG. 5A) | expression of genes MKI167, PCNA, and MCM7 related to cell growth ([6]; HCT116, FIG. 4B) | growth rate [7] | growth rate [8] | cell proliferation [9]
1 | O=C1[O][Pt]2([NH][C@@H]3CCCC[C@H]3[NH]2)[O]C1=O [oxaliplatin] | significantly reduced | significantly reduced | synergistic effect | significantly reduced | increased | increased |  |  |  |  |  |  |  |  | 
2 | siTAF10: siRNA targeting TAF10; sense GUGAAGAAGCCGCACUACU (SEQ ID NO: 1), antisense AGUAGUGCGGCUUCUUCAC (SEQ ID NO: 2) (listed as RNA, chemistry not given here) |  |  |  |  |  |  | increased | reduced | increased | arrested | increased | reduced | reduced | reduced | significantly reduced
